Legend:
[1] = Particle size by laser diffraction analysis; type: physicochemical; conditions: median by weight, 10% and 90% undersize limits in parentheses
Description: (§1) Particle sizes are shown as median values by weight as measured by laser diffraction analysis (Sympatec Helos […], Germany). […] Surface areas were measured by steady state […] (Johansson et al, Int. […] The results are shown as the mean value from three measurements. The standard deviation is given in parentheses.

[2] = Surface area by permeametry; type: physicochemical; conditions: permeametry with Blaine apparatus; mean of three, SD in parentheses
Description: as §1

Compound: O=C([O-])c1ccccc1O.[Na+] [Sodium salicylate, sodium salicylate]
- Particle Size [1]: 3.17 (0.8, 10.8) μm
- Surface Area [2]: 1.77 (0.13) m^2/g
